Data published in patent publication US20210177828A1, “TAM FAMILY KINASE /AND CSF1R KINASE INHIBITOR AND USE THEREOF” (Nanjing Transthera Biosciences Co., Ltd., priority 2018, published 2021).

Experiments:
[1] = molecular target: T1, Tyro-3 (h) (Homo sapiens, UniProt Q06418); assay: Enzymatic activity assay, Tyro-3 (h), [γ-33P]-ATP filter assay; format: biochemical; details: 10 μM ATP, 40 min room temperature; read-out: Inhibitory activity IC50 Tyro-3(h)
T1 sequence (Q06418 41-890): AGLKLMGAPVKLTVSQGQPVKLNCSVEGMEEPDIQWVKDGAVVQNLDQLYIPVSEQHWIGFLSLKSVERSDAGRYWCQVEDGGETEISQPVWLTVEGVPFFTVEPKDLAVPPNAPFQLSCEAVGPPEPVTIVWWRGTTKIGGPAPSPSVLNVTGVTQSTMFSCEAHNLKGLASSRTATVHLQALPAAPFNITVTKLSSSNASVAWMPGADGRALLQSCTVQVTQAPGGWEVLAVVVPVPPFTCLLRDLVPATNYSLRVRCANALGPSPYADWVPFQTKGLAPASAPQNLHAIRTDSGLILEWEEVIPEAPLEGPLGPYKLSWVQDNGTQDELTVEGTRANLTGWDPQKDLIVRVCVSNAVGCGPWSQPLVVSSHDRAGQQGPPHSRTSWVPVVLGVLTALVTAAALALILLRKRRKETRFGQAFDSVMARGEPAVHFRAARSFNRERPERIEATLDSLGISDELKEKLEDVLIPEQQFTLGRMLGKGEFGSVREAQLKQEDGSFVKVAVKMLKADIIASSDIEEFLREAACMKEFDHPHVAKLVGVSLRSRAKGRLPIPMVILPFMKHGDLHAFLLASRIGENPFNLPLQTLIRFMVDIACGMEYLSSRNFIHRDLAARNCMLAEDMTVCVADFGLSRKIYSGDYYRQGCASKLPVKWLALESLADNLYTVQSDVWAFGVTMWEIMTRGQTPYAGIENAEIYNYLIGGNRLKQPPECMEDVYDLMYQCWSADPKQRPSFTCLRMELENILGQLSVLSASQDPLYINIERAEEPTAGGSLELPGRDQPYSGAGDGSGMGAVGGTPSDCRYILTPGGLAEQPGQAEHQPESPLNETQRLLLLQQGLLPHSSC
Method: (§1) Compounds were each dissolved in 100% DMSO to prepare stock solutions with a maximum concentration of 500 μM.
(§2) Compound working solutions (50×) were prepared by diluting a compound stock solution to a final concentration of 500, 150, 50, 15, 5, 1.5, 0.5, 0.15 and 0.05 μM.
An enzyme solution with a final concentration of 38 nM was prepared by dissolving Tyro3 (h) enzyme in a mixture of 8 mM MOPS (pH 7.0), 0.2 mM EDTA, 1 mM MnCl2 and 250 μM KVEKIGEGTYGVVYK. A Mg/ATP mixture of 10 mM magnesium acetate and 10 μM [γ-^33P]-ATP was used to activate the enzymatic reaction.
(§3) A compound working solution was added to a 384-well plate, with final concentrations of 10,000, 3,000, 1,000, 300, 100, 30, 10, 3 and 1 nM, and then different enzymatic reaction solutions prepared according to the above conditions were added. The reaction solutions were incubated at room temperature for 40 min, and then 0.5% phosphoric acid solutions were added to terminate the reaction. 10 μL of the reaction solution was added dropwise to P30 filter paper, washed 4 times with a 0.425% phosphoric acid solution and once with methanol, and then placed in a scintillation counter for detection. Gray analysis was performed on the results with Image J software, and IC50 values were calculated with GraphPad 5.0 software.

[2] = molecular target: CSF1R (h) (Homo sapiens, UniProt P07333); assay: Enzymatic activity assay, CSF1R (h), [γ-33P]-ATP filter assay; format: biochemical; details: 10 μM ATP, 40 min room temperature; read-out: Inhibitory activity IC50 CSF1R(h)
Method: as §1, §2
An enzyme solution with a final concentration of 64 nM was prepared by dissolving CSF1R enzyme in a mixture of 8 mM MOPS (pH 7.0), 0.2 mM EDTA and 250 μM KKSRGDYMTMQIG. A Mg/ATP mixture of 10 mM magnesium acetate and 10 μM [γ-^33P]-ATP was used to activate the enzymatic reaction.
as §3

[3] = molecular target: T2, MDA-MB-231 cell pAxl (Homo sapiens, UniProt P30530); assay: Inhibitory activity on cell pAxl, MDA-MB-231 cells, hGAS6 stimulation, Western Blot; format: cell-based; details: hGAS6 200 ng/mL
T2 construct: endogenous in cells; host or cells: MDA-MB-231
T2 sequence (P30530 26-894): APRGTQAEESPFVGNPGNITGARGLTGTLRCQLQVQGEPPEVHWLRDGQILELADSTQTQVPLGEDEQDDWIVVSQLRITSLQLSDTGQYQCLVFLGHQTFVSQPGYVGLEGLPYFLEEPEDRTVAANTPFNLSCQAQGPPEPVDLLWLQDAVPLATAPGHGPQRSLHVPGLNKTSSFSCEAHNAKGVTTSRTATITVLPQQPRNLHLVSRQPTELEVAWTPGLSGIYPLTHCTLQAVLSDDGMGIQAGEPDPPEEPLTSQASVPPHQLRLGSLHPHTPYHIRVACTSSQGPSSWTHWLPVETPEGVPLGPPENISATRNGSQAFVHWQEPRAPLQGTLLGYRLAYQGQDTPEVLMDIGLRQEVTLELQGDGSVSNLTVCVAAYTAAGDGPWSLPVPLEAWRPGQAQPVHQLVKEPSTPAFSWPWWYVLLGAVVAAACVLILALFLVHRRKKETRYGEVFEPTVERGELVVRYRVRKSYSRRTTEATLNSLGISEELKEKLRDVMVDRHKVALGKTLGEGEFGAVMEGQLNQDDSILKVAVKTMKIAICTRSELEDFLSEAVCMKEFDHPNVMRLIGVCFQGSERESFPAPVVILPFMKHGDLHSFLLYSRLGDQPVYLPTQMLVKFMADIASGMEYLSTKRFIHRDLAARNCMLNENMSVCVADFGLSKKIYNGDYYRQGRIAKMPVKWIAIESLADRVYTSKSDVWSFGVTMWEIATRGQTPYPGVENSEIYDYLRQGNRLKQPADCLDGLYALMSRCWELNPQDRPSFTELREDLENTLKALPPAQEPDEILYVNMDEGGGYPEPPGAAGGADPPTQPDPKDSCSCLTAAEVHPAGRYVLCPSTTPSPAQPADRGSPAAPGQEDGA
Method: MDA-MB-231 is a breast cancer cell.
MDA-MB-231 cells were inoculated to a 6-well plate (containing 10% FBS DMEM medium, […] cells per well) and adherently cultivated at 37° C., and 5% CO2 for 18 hrs. The cells were starved overnight, and then compound solutions with different concentrations were added. Compounds 1 and 2 had final concentrations of 1.1, 3.3 and 10 nM, and the remaining compounds had final concentrations of 1.1, 3.3, 10 and 30 nM. […] There was a medium containing 1‰DMSO in the negative control well. The cells were incubated at 37° C., and 5% CO2 for 60 min, and then hGAS6 (R&D, final concentration: 200 ng/mL) was added to each well. The cells were further incubated for 60 min, and then the total protein of the cells was extracted for Western Blot experiment. Gray analysis was performed on the results with Image J software, and IC50 values were calculated with GraphPad 5.0 software. The inhibitory activities of the compounds on cell pAxl were detected.

CSF1R (h), sequence (P07333 20-972): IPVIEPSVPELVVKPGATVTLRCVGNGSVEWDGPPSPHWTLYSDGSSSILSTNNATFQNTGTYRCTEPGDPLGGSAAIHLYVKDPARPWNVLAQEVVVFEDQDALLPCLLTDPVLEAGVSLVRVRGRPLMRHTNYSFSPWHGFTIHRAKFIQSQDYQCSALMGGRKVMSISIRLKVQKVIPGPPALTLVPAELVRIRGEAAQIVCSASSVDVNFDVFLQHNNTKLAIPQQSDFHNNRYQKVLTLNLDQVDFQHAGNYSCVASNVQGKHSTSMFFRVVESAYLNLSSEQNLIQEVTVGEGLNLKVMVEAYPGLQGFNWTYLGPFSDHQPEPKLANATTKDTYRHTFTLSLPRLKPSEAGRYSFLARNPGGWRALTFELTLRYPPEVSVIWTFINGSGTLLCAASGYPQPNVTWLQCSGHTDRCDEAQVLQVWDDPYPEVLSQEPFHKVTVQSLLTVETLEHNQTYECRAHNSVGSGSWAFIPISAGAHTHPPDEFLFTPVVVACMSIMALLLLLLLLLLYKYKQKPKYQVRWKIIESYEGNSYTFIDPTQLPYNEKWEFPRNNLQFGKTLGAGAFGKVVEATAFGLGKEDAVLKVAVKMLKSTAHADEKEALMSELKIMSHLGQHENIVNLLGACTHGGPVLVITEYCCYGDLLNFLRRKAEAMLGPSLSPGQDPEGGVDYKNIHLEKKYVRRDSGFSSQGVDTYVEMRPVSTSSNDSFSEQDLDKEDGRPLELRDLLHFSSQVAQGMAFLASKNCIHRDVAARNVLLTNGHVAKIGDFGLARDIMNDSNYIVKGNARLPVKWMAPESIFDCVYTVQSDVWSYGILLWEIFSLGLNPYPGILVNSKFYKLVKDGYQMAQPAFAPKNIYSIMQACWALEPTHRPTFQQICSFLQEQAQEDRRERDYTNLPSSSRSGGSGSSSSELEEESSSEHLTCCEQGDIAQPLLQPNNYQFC

IC50 [1] [nM]	IC50 [2] [nM]	IC50 [3] [nM]	Structure (SMILES)
84	< 200	< 10	COc1cc2nccc(Oc3cnc(NC(=O)c4cn(C5CCOCC5)cc(-c5ccc(C)cc5)c4=O)nc3)c2cc1OC [Compound 20, N-(5-((6,7-dimethoxyquinolin-4-yl)oxy)pyrimidin-2-yl)-4-oxo-1-(tetrahydro-2H-pyran-4-yl)-5-(p-tolyl)-1,4-dihydropyridin-3-carboxamide]
35	< 200	–	COc1cc2nccc(Oc3ccc(NC(=O)c4cc(CC5CCOCC5)cn(-c5ccc(F)cc5)c4=O)nc3)c2cc1OC [Compound 32, N-(5-((6,7-dimethoxyquinolin-4-yl)oxy)pyridin-2-yl)-1-(4-fluorophenyl)-2-oxo-5-((tetrahydro-2H-pyran-4-yl)methy 1)-1,2-dihydropyridin-3-carboxamide]
23	< 200	–	COc1cc2nccc(Oc3cnc(NC(=O)c4nn(C5CCOCC5)cc(-c5ccc(F)cc5)c4=O)nc3)c2cc1OC [Compound 33, N-(5-((6,7-dimethoxyquinolin-4-yl)oxy)pyrimidin-2-yl)-5-(4-fluorophenyl)-4-oxo-1-(tetrahydro-2H-pyran-4-yl)-1,4-dihydropyridazin-3-carboxamide]
48	< 200	< 3.3	COc1cc2nccc(Oc3ccc(NC(=O)c4cc(CC5CCOCC5)cn(-c5ccc(C)cc5)c4=O)nc3)c2cc1OC [Compound 26, N-(5-((6,7-dimethoxyquinolin-4-yl)oxy)pyridin-2-yl)-oxo-5-((tetrahydro-2H-pyran-4-yl)methyl)-1-(p-tolyl)-1,2-dihydropyridin-3-carboxamide]

Further lines, the compound ahead of its results:

Structure (SMILES)	IC50 [1] [nM]	IC50 [2] [nM]	IC50 [3] [nM]
COc1cc2nccc(Oc3ccc(NC(=O)c4nn(CC5CCOCC5)cc(-c5ccc(C)cc5)c4=O)nc3)c2cc1OC [Compound 2, N-(5-((6,7-dimethoxyquinolin-4-yl)oxy)pyridin-2-yl)-4-oxo-1-((tetrahydro-2H-pyran-4-yl)methyl)-5-(p-tolyl)-1,4-dihydropyridazin-3-carboxamide]	13	< 200	< 1.1
COc1cc2nccc(Oc3cnc(NC(=O)c4nn(C5CCOCC5)cc(-c5ccc(C)cc5)c4=O)nc3)c2cc1OC [Compound 18, N-(5-((6,7-dimethoxyquinolin-4-yl)oxy)pyrimidin-2-yl)-4-oxo-1-(tetrahydro-2H-pyran-4-yl)-5-(p-tolyl)-1,4-dihydropyridazin-3-carboxamide]	58	< 200	< 1.1
COc1cc2nccc(Oc3cnc(NC(=O)c4cn(CC5CCOCC5)cc(-c5ccc(C)cc5)c4=O)nc3)c2cc1OC [Compound 4, N-(5-((6,7-dimethoxyquinolin-4-yl)oxy)pyrimidin-2-yl)-4-oxo-1-((tetrahydro-2H-pyran-4-yl)methyl)-5-(p-tolyl)-1,4-dihydropyridin-3-carboxamide]	178	< 200	< 1.1
COc1cc2nccc(Oc3cnc(NC(=O)c4nn(CC5CCOCC5)cc(-c5ccc(C)cc5)c4=O)nc3)c2cc1OC [Compound 16, N-(5-((6,7-dimethoxyquinolin-4-yl)oxy)pyrimidin-2-yl)-4-oxo-1-((tetrahydro-2H-pyran-4-yl)methyl)-5-(p-tolyl)-1,4-dihydropyridazin-3-carboxamide]	23	< 200	< 1.1
COc1cc2nccc(Oc3ccc(NC(=O)c4nn(C5CCOCC5)cc(-c5ccc(C)cc5)c4=O)nc3)c2cc1OC [Compound 17, N-(5-((6,7-dimethoxyquinolin-4-yl)oxy)pyridin-2-yl)-4-oxo-1-(tetrahydro-2H-pyran-4-yl)-5-(p-tolyl)-1,4-dihydropyridazin-3-carboxamide]	14	< 200	< 1.1
